In assay [1] the test system is MCF7. Nature of the assay: Ratio of compound ED50 to paclitaxel ED50 for human MCF7 cells. It counts as functional.
Assay [2] concerns NCI/ADR-RES. The experiment in a line: Ratio of compound ED50 to paclitaxel ED50 for human NCI/ADR-RES cells. The format is functional.
Assay [3] is described as follows: Ratio of compound ED50 to paclitaxel ED50 for tubulin assembly.
For the next assay, the system named is Endothelial cell. Nature of the assay: Binding affinity to Pgp in bovine brain microvessel endothelial cells assessed as increase in rhodamine uptake at 10 uM relative to control. The format is cell-based. The settings on record: Bos taurus.
Assay [4] concerns MCF7. Nature of the assay: Cytotoxicity against human MCF7 cells. The format is functional. Particulars: read-out: ED50 (the source's name).
Assay [5] relates to NCI/ADR-RES. The experiment in a line: Cytotoxicity against human NCI/ADR-RES cells. The settings on record: read-out: ED50 (the source's name). It counts as functional.

The structures appear in SMILES notation. Active and inactive are the calls of the source. The rule behind the calls is not given here.

This is an account of results in ChEMBL document CHEMBL1152132 (2008).

On to `CNC(=O)CCCC(=O)O[C@H]1C[C@H]2OC[C@@]2(OC(C)=O)[C@H]2[C@H](OC(=O)c3ccccc3)[C@]3(O)C[C@H](OC(=O)[C@H](O)[C@@H](NC(=O)c4ccccc4)c4ccccc4)C(C)=C([C@@H](OC(C)=O)C(=O)[C@]12C)C3(C)C`, for which the “Ratio ED50” value was found to be 3.7 with MCF7 [1], 3.2 in the assay on NCI/ADR-RES [2] and 0.8 in assay [3]. The result in the assay on Endothelial cell was Active.
As to `CC(=O)O[C@@]12CO[C@@H]1C[C@H](O)[C@@]1(C)C(=O)[C@H](OC(=O)CCCC(=O)N(C)C)C3=C(C)[C@@H](OC(=O)[C@H](O)[C@@H](NC(=O)c4ccccc4)c4ccccc4)C[C@@](O)([C@@H](OC(=O)c4ccccc4)[C@H]21)C3(C)C`, in assay [3], the Ratio ED50 turned out to be 2.2. Further, in the assay on Endothelial cell, the result was Active.
As to `CC(=O)O[C@H]1C(=O)[C@]2(C)[C@@H](OC(=O)CCCC(=O)O)C[C@H]3OC[C@@]3(OC(C)=O)[C@H]2[C@H](OC(=O)c2ccccc2)[C@]2(O)C[C@H](OC(=O)[C@H](O)[C@@H](NC(=O)c3ccccc3)c3ccccc3)C(C)=C1C2(C)C`, the Ratio ED50 in assay [3] worked out at 1.
`CC(=O)O[C@@]12CO[C@@H]1C[C@H](O)[C@@]1(C)C(=O)[C@H](OC(=O)CCC(=O)N(C)C)C3=C(C)[C@@H](OC(=O)[C@H](O)[C@@H](NC(=O)c4ccccc4)c4ccccc4)C[C@@](O)([C@@H](OC(=O)c4ccccc4)[C@H]21)C3(C)C`: the entries for the “Ratio ED50” value (in the assay on MCF7 [1]; in the assay on NCI/ADR-RES [2]; in assay [3]) were 2.1, 2.7 and 1.6, respectively. For the same compound, the result with Endothelial cell was Active.
Regarding `CC(=O)O[C@@]12CO[C@@H]1C[C@H](O)[C@@]1(C)C(=O)[C@H](OC(=O)CCC(=O)O)C3=C(C)[C@@H](OC(=O)[C@H](O)[C@@H](NC(=O)c4ccccc4)c4ccccc4)C[C@@](O)([C@@H](OC(=O)c4ccccc4)[C@H]21)C3(C)C`, in assay [3], the Ratio ED50 came out at 1.7.
With `COC(=O)CCC(=O)O[C@H]1C(=O)[C@@]2(C)[C@H]([C@H](OC(=O)c3ccccc3)[C@]3(O)C[C@H](OC(=O)[C@H](O)[C@@H](NC(=O)c4ccccc4)c4ccccc4)C(C)=C1C3(C)C)[C@]1(OC(C)=O)CO[C@@H]1C[C@@H]2O`, the “Ratio ED50” value amounted to 2.5 in the assay with MCF7 [1], 0.4 with NCI/ADR-RES [2] and 1 in assay [3].
As to `COC(=O)CCC(=O)O[C@H]1C[C@H]2OC[C@@]2(OC(C)=O)[C@H]2[C@H](OC(=O)c3ccccc3)[C@]3(O)C[C@H](OC(=O)[C@H](O)[C@@H](NC(=O)c4ccccc4)c4ccccc4)C(C)=C([C@@H](OC(C)=O)C(=O)[C@]12C)C3(C)C`, the Ratio ED50 in assay [3] is 1.2. Moreover, the result in the assay on Endothelial cell was Active.
Taken in the same sequence, the figures for `CC(=O)O[C@H]1C(=O)[C@]2(C)[C@@H](OC(=O)CCC(N)=O)C[C@H]3OC[C@@]3(OC(C)=O)[C@H]2[C@H](OC(=O)c2ccccc2)[C@]2(O)C[C@H](OC(=O)[C@H](O)[C@@H](NC(=O)c3ccccc3)c3ccccc3)C(C)=C1C2(C)C` were 0.6 and “Active”.
`CC(=O)O[C@@]12CO[C@@H]1C[C@H](O)[C@@]1(C)C(=O)[C@H](OC(=O)CCC(N)=O)C3=C(C)[C@@H](OC(=O)[C@H](O)[C@@H](NC(=O)c4ccccc4)c4ccccc4)C[C@@](O)([C@@H](OC(=O)c4ccccc4)[C@H]21)C3(C)C`: the “Ratio ED50” value in the assay on MCF7 [1] was found to be 10; with NCI/ADR-RES [2], 6; in assay [3], 0.4. Besides, in the assay with Endothelial cell, the result was Active.
As for `CC(=O)O[C@@]12CO[C@@H]1C[C@H](O)[C@@]1(C)C(=O)[C@H](OC(=O)CCCC(=O)O)C3=C(C)[C@@H](OC(=O)[C@H](O)[C@@H](NC(=O)c4ccccc4)c4ccccc4)C[C@@](O)([C@@H](OC(=O)c4ccccc4)[C@H]21)C3(C)C`, the Ratio ED50 in assay [3] came to 1.8.
On to `CC(=O)O[C@H]1C(=O)[C@]2(C)[C@@H](OC(=O)CCC(=O)N(C)C)C[C@H]3OC[C@@]3(OC(C)=O)[C@H]2[C@H](OC(=O)c2ccccc2)[C@]2(O)C[C@H](OC(=O)[C@H](O)[C@@H](NC(=O)c3ccccc3)c3ccccc3)C(C)=C1C2(C)C`, for which the Ratio ED50 in assay [3] turned out to be 1.1. Also, the outcome with Endothelial cell was Active.
With `CNC(=O)CCCC(=O)O[C@H]1C(=O)[C@@]2(C)[C@H]([C@H](OC(=O)c3ccccc3)[C@]3(O)C[C@H](OC(=O)[C@H](O)[C@@H](NC(=O)c4ccccc4)c4ccccc4)C(C)=C1C3(C)C)[C@]1(OC(C)=O)CO[C@@H]1C[C@@H]2O`, the Ratio ED50 in assay [3] was 1.8. Moreover, the result in the assay on Endothelial cell was Active.
Regarding `CC(=O)O[C@@]12CO[C@@H]1C[C@H](O)[C@@]1(C)C(=O)[C@H](OC(=O)CCCC(N)=O)C3=C(C)[C@@H](OC(=O)[C@H](O)[C@@H](NC(=O)c4ccccc4)c4ccccc4)C[C@@](O)([C@@H](OC(=O)c4ccccc4)[C@H]21)C3(C)C`, the Ratio ED50 in assay [3] amounted to 1.8. Moreover, in the assay with Endothelial cell, the outcome was Active.
With `CC(=O)O[C@H]1C(=O)[C@]2(C)[C@@H](OC(=O)CCC(=O)O)C[C@H]3OC[C@@]3(OC(C)=O)[C@H]2[C@H](OC(=O)c2ccccc2)[C@]2(O)C[C@H](OC(=O)[C@H](O)[C@@H](NC(=O)c3ccccc3)c3ccccc3)C(C)=C1C2(C)C`, the Ratio ED50 in assay [3] worked out at 3.8.
Consider `CC(=O)O[C@H]1C(=O)[C@]2(C)[C@@H](OC(=O)CCCC(N)=O)C[C@H]3OC[C@@]3(OC(C)=O)[C@H]2[C@H](OC(=O)c2ccccc2)[C@]2(O)C[C@H](OC(=O)[C@H](O)[C@@H](NC(=O)c3ccccc3)c3ccccc3)C(C)=C1C2(C)C`, for which the Ratio ED50 in assay [3] came to 0.6. For the same compound, the outcome in the assay with Endothelial cell was Active.
Take `CC(=O)O[C@H]1C(=O)[C@@]2(C)[C@H]([C@H](OC(=O)c3ccccc3)[C@]3(O)C[C@H](OC(=O)[C@H](O)[C@@H](NC(=O)c4ccccc4)c4ccccc4)C(C)=C1C3(C)C)[C@]1(OC(C)=O)CO[C@@H]1C[C@@H]2O` [PACLITAXEL]: the EC50 amounted to 3.2 nM with MCF7 [4] and 1500 nM in the assay with NCI/ADR-RES [5].
In the case of `CNC(=O)CCC(=O)O[C@H]1C(=O)[C@@]2(C)[C@H]([C@H](OC(=O)c3ccccc3)[C@]3(O)C[C@H](OC(=O)[C@H](O)[C@@H](NC(=O)c4ccccc4)c4ccccc4)C(C)=C1C3(C)C)[C@]1(OC(C)=O)CO[C@@H]1C[C@@H]2O`, the “Ratio ED50” value in the assay with MCF7 [1] was found to be 7.9; with NCI/ADR-RES [2] it was 6; in assay [3], 0.8. For the same compound, in the assay on Endothelial cell, the outcome was Active.
In the case of `CNC(=O)CCC(=O)O[C@H]1C[C@H]2OC[C@@]2(OC(C)=O)[C@H]2[C@H](OC(=O)c3ccccc3)[C@]3(O)C[C@H](OC(=O)[C@H](O)[C@@H](NC(=O)c4ccccc4)c4ccccc4)C(C)=C([C@@H](OC(C)=O)C(=O)[C@]12C)C3(C)C`, the Ratio ED50 in assay [3] turned out to be 0.8. In the assay with Endothelial cell, the outcome was Active.
In the case of `CC(=O)O[C@H]1C(=O)[C@]2(C)[C@@H](OC(=O)CCCC(=O)N(C)C)C[C@H]3OC[C@@]3(OC(C)=O)[C@H]2[C@H](OC(=O)c2ccccc2)[C@]2(O)C[C@H](OC(=O)[C@H](O)[C@@H](NC(=O)c3ccccc3)c3ccccc3)C(C)=C1C2(C)C`, the Ratio ED50 in assay [3] worked out at 0.7. Also, the outcome with Endothelial cell was Active.
